From publication PMC9391358, “Crystal structures reveal catalytic and regulatory mechanisms of the dual-specificity ubiquitin/FAT10 E1 enzyme Uba6” (Nature Communications, 2022) come the findings set out here.

pKd: −log10 of the molar value.

The target in assay [1] is T1, Uba6 (Uba6_Apo; Uba6_WT) (Homo sapiens, UniProt A0AVT1).
T1 construct: residues 37-1052; crystal from insect cells, His tag cleaved by TEV, C625A
T1 sequence (A0AVT1 37-1052): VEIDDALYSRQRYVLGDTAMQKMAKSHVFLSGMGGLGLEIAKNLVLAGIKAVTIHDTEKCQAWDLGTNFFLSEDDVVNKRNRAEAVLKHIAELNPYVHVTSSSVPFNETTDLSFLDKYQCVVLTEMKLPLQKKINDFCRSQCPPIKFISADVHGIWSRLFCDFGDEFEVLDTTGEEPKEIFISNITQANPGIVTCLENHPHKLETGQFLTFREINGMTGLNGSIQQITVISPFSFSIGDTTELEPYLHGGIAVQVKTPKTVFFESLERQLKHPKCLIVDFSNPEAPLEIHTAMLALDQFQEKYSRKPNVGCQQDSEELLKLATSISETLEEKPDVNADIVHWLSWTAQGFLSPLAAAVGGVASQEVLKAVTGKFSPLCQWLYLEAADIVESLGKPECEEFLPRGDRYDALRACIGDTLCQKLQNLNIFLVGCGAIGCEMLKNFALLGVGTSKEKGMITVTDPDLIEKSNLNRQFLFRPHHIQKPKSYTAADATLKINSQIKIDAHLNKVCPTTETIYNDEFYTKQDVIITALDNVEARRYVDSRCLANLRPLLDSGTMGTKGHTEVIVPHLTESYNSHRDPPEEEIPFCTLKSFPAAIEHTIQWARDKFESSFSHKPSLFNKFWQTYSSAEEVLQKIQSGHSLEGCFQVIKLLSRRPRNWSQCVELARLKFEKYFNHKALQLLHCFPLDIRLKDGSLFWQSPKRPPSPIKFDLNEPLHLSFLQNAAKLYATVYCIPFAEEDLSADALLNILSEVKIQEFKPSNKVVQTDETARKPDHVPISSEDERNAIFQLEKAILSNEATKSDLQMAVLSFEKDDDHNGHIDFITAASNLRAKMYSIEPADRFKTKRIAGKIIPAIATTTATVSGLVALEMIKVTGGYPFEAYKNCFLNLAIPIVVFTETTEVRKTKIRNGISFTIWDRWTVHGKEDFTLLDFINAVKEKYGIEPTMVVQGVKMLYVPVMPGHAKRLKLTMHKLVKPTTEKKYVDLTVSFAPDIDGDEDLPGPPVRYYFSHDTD
In words: isothermal titration calorimetry. In kind it is binding. In general terms: ITC needs no label: the signal is the heat of the interaction.

For another assay, the target named is T2, Uba6 SCCH domain (Homo sapiens, UniProt A0AVT1).
T2 construct: standalone SCCH domain, residues 615-892, E. coli, SMT3 tag cleaved by ULP1
T2 sequence (A0AVT1 615-892): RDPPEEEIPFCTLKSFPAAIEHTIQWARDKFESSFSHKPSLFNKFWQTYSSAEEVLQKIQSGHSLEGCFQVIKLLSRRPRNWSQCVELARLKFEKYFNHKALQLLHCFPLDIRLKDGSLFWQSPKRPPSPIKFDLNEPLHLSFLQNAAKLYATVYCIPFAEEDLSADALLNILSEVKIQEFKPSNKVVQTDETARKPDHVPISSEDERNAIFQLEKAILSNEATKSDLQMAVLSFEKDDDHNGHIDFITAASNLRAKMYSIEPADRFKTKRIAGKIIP
The assay can be described thus: thermal shift assay (SYPRO Orange). In kind it is binding. As to conditions: ~43 °C without ligand, 20 mM HEPES pH 7.5, 150 mM NaCl, 0.25 mM TCEP, E. coli-derived.

The target of another assay is T3, Uba1 (Uba1_WT) (Homo sapiens, UniProt P22314).
T3 construct: E. coli-produced Uba1; a Uba1 SCCH domain (625-892) was also made and may be the ITC sample
T3 sequence (P22314 2-1058): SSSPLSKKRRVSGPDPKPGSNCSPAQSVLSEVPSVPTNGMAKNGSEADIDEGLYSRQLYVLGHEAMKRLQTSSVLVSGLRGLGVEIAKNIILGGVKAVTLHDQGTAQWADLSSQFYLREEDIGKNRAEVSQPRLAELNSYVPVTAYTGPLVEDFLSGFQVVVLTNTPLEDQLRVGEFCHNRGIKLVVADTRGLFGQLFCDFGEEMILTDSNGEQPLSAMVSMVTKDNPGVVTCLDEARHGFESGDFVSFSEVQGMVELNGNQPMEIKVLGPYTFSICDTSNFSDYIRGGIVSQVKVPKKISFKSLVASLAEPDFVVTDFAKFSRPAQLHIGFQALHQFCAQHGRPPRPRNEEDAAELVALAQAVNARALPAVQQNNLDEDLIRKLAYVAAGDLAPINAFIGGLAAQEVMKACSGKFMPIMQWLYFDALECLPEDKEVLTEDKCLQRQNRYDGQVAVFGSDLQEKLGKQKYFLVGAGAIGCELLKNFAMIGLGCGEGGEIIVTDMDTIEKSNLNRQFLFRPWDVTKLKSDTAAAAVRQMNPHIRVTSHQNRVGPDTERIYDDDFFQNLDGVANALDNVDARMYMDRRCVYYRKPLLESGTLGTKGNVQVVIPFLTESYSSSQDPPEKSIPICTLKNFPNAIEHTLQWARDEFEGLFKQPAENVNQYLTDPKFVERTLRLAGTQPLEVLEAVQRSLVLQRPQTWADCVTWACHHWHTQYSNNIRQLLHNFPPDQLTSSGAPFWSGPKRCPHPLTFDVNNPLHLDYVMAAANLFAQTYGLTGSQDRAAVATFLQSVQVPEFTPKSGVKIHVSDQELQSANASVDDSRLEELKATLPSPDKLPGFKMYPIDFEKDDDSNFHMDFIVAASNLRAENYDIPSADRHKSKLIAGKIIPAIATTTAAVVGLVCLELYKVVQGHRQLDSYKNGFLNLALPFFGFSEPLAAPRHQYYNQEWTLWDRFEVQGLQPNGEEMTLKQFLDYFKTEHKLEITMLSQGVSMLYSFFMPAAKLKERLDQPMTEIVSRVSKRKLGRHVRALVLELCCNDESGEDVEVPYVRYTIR
In words: gel-based Uba1~Ub thioester formation, […] s. In kind it is biochemical. As to conditions: ubiquitin 2.5 μM, 0-50 μM InsP6, 100 nM E1, 500 μM ATP, 5 mM MgCl2, pH 7.4, RT.

For assay [2], the target named is T1, Uba6 (Uba6_Apo; Uba6_WT). In words: binding test, method not given.

What is called pKd is the Kd on a negative log10 scale, so that one unit is a factor of ten. Turning to `O=P(O)(O)O[C@@H]1[C@H](O)[C@H](O)[C@@H](OP(=O)(O)O)[C@H](OP(=O)(O)O)[C@H]1O` [InsP3, D-myo-Inositol 1,4,5-trisphosphate], the pKd on Uba6 (Uba6_Apo; Uba6_WT) [1] was 6.61. Besides, the melting temperature at Uba6 SCCH domain (100 μM InsP3) is 47 °C.

For the compound `O=P(O)(O)O[C@@H]1[C@@H](OP(=O)(O)O)[C@H](OP(=O)(O)O)[C@H](O)[C@H](OP(=O)(O)O)[C@H]1OP(=O)(O)O` [InsP5, D-myo-Inositol 1,3,4,5,6-pentakisphosphate], the pKd at Uba6 (Uba6_Apo; Uba6_WT) [1] is 7.14. At Uba6 SCCH domain (100 μM InsP5), the melting temperature amounted to 54 °C.

`O=P(O)(O)O[C@H]1[C@H](OP(=O)(O)O)[C@@H](OP(=O)(O)O)[C@H](OP(=O)(O)O)[C@@H](OP(=O)(O)O)[C@H]1OP(=O)(O)O` [InsP6]: the IC50 result on Uba1 (Uba1_WT) is “InsP6 failed to inhibit Uba1 activation of Ub”.

As to `O[C@H]1[C@H](O)[C@@H](O)[C@H](O)[C@@H](O)[C@H]1O` [myo-inositol], the “binding test, method not given” value on Uba6 (Uba6_Apo; Uba6_WT) [2] is given as “myo-inositol (which lacks phosphates) fails to bind with Uba6 with detectable affinity”.
